Results published in patent US9776972B2, “Pyrazole derivatives as arginine methyltransferase inhibitors and uses thereof” (priority 2013, dated 2017).

molecular target: human PRMT3 (Homo sapiens, UniProt O60678); assay: PRMT3 Biochemical Assay (3H-SAM Flashplate, peptide substrate); conditions: single experiment or average of multiple experiments
Description: S-adenosylmethionine (SAM), S-adenosylhomocysteine (SAH), bicine, Tween20, dimethylsulfoxide (DMSO), bovine skin gelatin (BSG), isopropyl-β-D-thiogalactopyranoside (IPTG), and Tris(2-carboxyethyl)phosphine hydrochloride solution (TCEP) were purchased from Sigma-Aldrich at the highest level of purity possible. ^3H-SAM was purchase from American Radiolabeled Chemicals with a specific activity of 80 Ci/mmol. 384-well streptavidin Flashplates were purchased from PerkinElmer.
Peptide containing the classic RMT substrate motif was synthesized with an N-terminal linker-affinity tag motif and a C-terminal amide cap by 21st Century Biochemicals. The peptide was purified by high-performance liquid chromatography (HPLC) to greater than 95% purity and confirmed by liquid chromatography mass spectrometry (LC-MS). The sequence was Biot-Ahx-[…]-amide (SEQ ID NO.:11).
Full-length human PRMT3 (NM_005788.3) isoform 1 transcript clone was amplified from an HEK 293 cDNA library and subcloned into pGEX-KG (GE Life Sciences). The resulting construct encodes an N-terminal GST tag and a thrombin cleavage sequence ([…] […] […] […]) (SEQ ID NO.: 12) fused directly to Cys 2 of PRMT3.
E. coli (BL21(DE3) Gold, Stratagene) made competent by the CaCl2 method were transformed with the PRMT3 construct and ampicillin selection. Protein over-expression was accomplished by growing the PRMT3 expressing E. coli clone and inducing expression with 0.3 mM IPTG at 16° C. The culture was grown for 12 hours, harvested by centrifugation, and stored at −80° C. for purification.
GST-tagged PRMT3 was eluted with 50 mM Tris, 2 mM glutathione, pH 7.1 and 50 mM Tris, 20 mM glutathione, pH 7.1. Pooled fractions were dialysed in 20 mM Tris, 50 mM NaCl, 5% glycerol, 1 mM EDTA, 1 mM DTT, pH7.5 (Buffer B) and applied to a Q Sepharose Fast Flow column. GST-tagged PRMT3 was eluted by 500 mM NaCl in buffer B. Pooled fractions were dialyzed in 25 mM phosphate buffer, 100 mM NaCl, 5% glycerol, 2 mM DTT, pH 6.8 (Buffer C) and loaded on to a ceramic hydroxyapatite column. GST-tagged PRMT3 eluted with 25-400 mM phosphate in buffer C. Protein was concentrated and buffer was exchanged to 20 mM Tris, 150 mM NaCl, 5% glycerol, 5 mM β-mercaptoethanol, pH7.8 by ultrafiltration. The purity of recovered protein was 70%.
General Procedure for PRMT3 Enzyme Assays on Peptide Substrates.
The assays were all performed in a buffer consisting of 20 mM Bicine (pH=7.6), 1 mM TCEP, 0.005% BSG, and 0.002% Tween 20, prepared on the day of use. Compounds in 100% DMSO (1 ul) were spotted into a polypropylene 384-well V-bottom plates (Greiner) using a Platemate Plus outfitted with a 384-channel head (Thermo Scientific). DMSO (1 ul) was added to Columns 11, 12, 23, 24, rows A-H for the maximum signal control and 1 ul of SAH, a known product and inhibitor of PRMT3, was added to columns 11, 12, 23, 24, rows I-P for the minimum signal control. A cocktail (40 ul) containing the PRMT3 enzyme was added by Multidrop Combi (Thermo-Fisher). The compounds were allowed to incubate with PRMT3 for 30 min at room temperature, then a cocktail (10 ul) containing SAM and peptide was added to initiate the reaction (final volume=51 ul). The final concentrations of the components were as follows: PRMT3 was 0.5 nM, ^3H-SAM was 100 nM, non-radiolabeled SAM was 1.8 uM, peptide was 330 nM, SAH in the minimum signal control wells was 1 mM, and the DMSO concentration was 2%. The assays were stopped by the addition of potassium chloride (10 ul) to a final concentration of 100 mM. 50 ul of the reaction in the 384-well polypropylene plate was then transferred to a 384-well Flashplate and the biotinylated peptides were allowed to bind to the streptavidin surface for at least 1 hour before being washed once with 0.1% Tween20 in a Biotek ELx405 plate washer. […]

Chain of human PRMT3 (O60678 with tags, fused parts or gaps): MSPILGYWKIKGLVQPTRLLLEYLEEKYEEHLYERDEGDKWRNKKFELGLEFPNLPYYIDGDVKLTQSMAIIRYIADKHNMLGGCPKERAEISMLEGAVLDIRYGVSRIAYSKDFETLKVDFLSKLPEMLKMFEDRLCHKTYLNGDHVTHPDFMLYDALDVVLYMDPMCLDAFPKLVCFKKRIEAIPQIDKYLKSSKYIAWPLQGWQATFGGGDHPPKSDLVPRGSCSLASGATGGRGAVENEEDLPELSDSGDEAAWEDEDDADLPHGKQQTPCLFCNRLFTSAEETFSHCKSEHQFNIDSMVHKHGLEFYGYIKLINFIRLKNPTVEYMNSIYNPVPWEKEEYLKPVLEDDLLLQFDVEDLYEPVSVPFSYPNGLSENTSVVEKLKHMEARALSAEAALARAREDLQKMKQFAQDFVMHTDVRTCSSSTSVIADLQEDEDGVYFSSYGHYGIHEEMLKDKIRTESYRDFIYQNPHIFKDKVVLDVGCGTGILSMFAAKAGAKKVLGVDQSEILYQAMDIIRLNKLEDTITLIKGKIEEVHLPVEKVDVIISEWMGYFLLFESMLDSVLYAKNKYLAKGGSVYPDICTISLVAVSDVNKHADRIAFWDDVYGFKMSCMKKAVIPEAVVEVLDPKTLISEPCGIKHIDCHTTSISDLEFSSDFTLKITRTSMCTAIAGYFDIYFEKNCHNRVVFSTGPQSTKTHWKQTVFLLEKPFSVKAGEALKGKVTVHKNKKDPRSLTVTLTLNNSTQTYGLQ

Row | Structure (SMILES) | IC50
1 | COc1ccc(-c2n[nH]cc2CN(C)CCN)cc1 [Compound 153] | 4.1 µM
2 | CNCCN(C)Cc1cn[nH]c1-c1cc(F)cc(F)c1 [Compound 18] | 7.43 µM
3 | COCCOc1ccc(-c2n[nH]cc2CN(C)CCN)cc1 [Compound 167] | 3.74 µM
4 | CNCCN(C)Cc1cnn(C(C)C)c1-c1ccc(F)cc1 [Compound 16] | > 50 µM
5 | CNCCN(C)Cc1cn[nH]c1-c1ccc(C#N)cc1 [Compound 17] | 2.79 µM
6 | COc1ccc(-c2n[nH]cc2CN(C)CCN)c(Cl)c1 [Compound 146] | 9 µM
7 | COc1ccc(-c2n[nH]cc2CN(C)CCN)c(C)c1 [Compound 155] | 8.56 µM

More lines, in order of falling IC50, values ahead:

Row | IC50 | Structure (SMILES)
8 | 23.3 µM | CNCCN(C)Cc1cnn(C2CC2)c1-c1ccc(F)cc1 [Compound 14]
9 | 9.63 µM | Cc1cc(F)ccc1-c1n[nH]cc1CN(C)CCN [Compound 152]
10 | 9.02 µM | CN(CCN)Cc1c[nH]nc1-c1cccc(N(C)C)c1 [Compound 149]
11 | 7.33 µM | CC(C)Cc1ccc(-c2c[nH]nc2CN(C)CCN)cc1 [Compound 170]
12 | 7.18 µM | CN(CCN)Cc1n[nH]cc1-c1ccc(C2CCOCC2)cc1 [Compound 145]
13 | 3.52 µM | Cc1ccc(-c2n[nH]cc2CN(C)CCN)cc1 [Compound 162]
14 | 3.45 µM | CCOc1ccc(-c2n[nH]cc2CN(C)CCN)cc1 [Compound 166]
15 | 3.41 µM | CN(CCN)Cc1c[nH]nc1-c1ccc(OCCN2CCOCC2)cc1 [Compound 172]
